What was measured:
[1] = system: Mixed primary human hepatocytes; assay: Metabolism in human hepatocytes, UPLC-UV/Q-TOF MS; assay type: in vitro ADME; conditions: 180 min
Description: (§1) In this example, a UPLC-UV/Q-TOF MS method was used to evaluate the differences in the metabolic processes of TL134 in hepatocytes of five species of human, monkey, canine, rat, and mouse. It provides a reference for the selection of preclinical pharmacokinetics and studies on animal species safety evaluation.
(§2) The total volume of each incubation sample was 100 μL, the medium was WME medium (pH 7.4), and the incubation sample included hepatocytes with a cell density of 1.0×10^6 cells/mL and TL134 with a final concentration of 3.0 μM; the negative control sample was incubated with thermal-inactivated mixed hepatocytes (without cell counting) of five species of animals and TL134, and the buffer control sample was incubated with WME medium and TL134. All samples were incubated at 37° C. for 180 min, and then 100 μL of ice-cold acetonitrile was added to stop the reaction. The samples were stored at −70° C. for ready to be tested, and all incubation samples were double samples.
(§3) Triple TOF 5600′ quadrupole-time-of-flight tandem mass spectrometer (Q-TOF MS), equipped with electrospray ionization source (ESI source) and CDS automatic calibration system, AB SCIEX Company, USA; Acquity UPLC liquid chromatography system, including binary infusion pump, autosampler, column oven, degasser and TUV ultraviolet detector, Waters Company, USA. […]

[2] = system: Mixed primary male SD rat hepatocytes; assay: Metabolism in rat hepatocytes, UPLC-UV/Q-TOF MS; assay type: in vitro ADME; conditions: 180 min
Description: as §1, §2, §3

[3] = target: T1, AXL kinase domain recombinant protein (Homo sapiens, UniProt P30530); assay: AXL kinase inhibition, ELISA; assay type: biochemical; conditions: ATP 5 μM
T1 construct: the AXL kinase domain recombinant protein (eurofins, 14-512); purchased eurofins 14-512
T1 sequence (P30530 536-807 limits assumed): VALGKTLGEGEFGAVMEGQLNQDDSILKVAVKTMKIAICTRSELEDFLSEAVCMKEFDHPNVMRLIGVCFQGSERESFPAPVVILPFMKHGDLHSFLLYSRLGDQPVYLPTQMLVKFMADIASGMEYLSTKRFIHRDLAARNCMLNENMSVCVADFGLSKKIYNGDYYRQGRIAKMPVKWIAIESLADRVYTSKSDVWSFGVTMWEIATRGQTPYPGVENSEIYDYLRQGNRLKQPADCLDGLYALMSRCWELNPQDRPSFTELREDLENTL
Description: Detection of the activity of kinase: Enzyme-linked immunosorbent assay (ELISA) technology was used to detect the inhibitory activities of the compounds against the kinase. […] After the liquid in the well was discarded, the plate was washed three times with T-PBS (PBS containing 0.1% Tween-20), 200 μL T-PBS per well, 5 minutes for each time. The enzyme label plate was dried in an oven at 37° C. for 1-2 hours. To each well was added 50 μL of ATP solution diluted with reaction buffer (50 mM HEPES, pH 7.4, 50 mM MgCl2, 0.5 mM MnCl2, 0.2 mM Na3VO4, 1 mM DTT) with a final concentration of 5 μM. […] Two wells with no enzyme for control are required for each experiment. The plate was incubated on a shaker (100 rpm) at 37° C. and reacted for 1 hour. The plate was washed three times with T-PBS. 100 μ/well of primary antibody PY99 dilution was added and the plate was reacted in a shaker at 37° C. for 0.5 hour. The plate was washed three times with T-PBS. 100 μ/well of secondary antibody horseradish peroxidase-labeled goat anti-mouse IgG dilution was added and the plate was reacted in a shaker at 37° C. for 0.5 hour. The plate was washed three times with T-PBS. 2 mg/ml of OPD color solution was added with 100 μ/well (diluted with 0.1 M citric acid-sodium citrate buffer (pH=5.4) containing 0.03% H2O2), and the plate was reacted at 25° C. in the dark for 1-10 minutes. (Ultrasound is required for the dissolution of OPD, and the color solution needs to be prepared for immediate use). 50 μ/well of 2 M H2SO4 was added to stop the reaction, and the wavelength-adjustable enzyme-labeling instrument SPECTRA MAX 190 was used to read the data at a wavelength of 490 nm.
The inhibition rate of the sample was obtained by the following formula: […]
The IC50 values were obtained by regression with the four-parameter method using the software attached to the enzyme-labeling instrument.

Row | prototype drug metabolized, judging from the UV chromatographic peak areas [1] | prototype drug metabolized, judging from the UV chromatographic peak areas [2] [%] | IC50 [3] [nM] | SMILES
1 | approximately 17.8% | ~19.8 | 1.1 | COc1cc2c(Oc3ccc(NC(=O)c4c(C)n(C)c5ccc(OC(F)(F)F)cc5c4=O)cc3F)ncnc2cc1OCCCN1CCOCC1 [TL-134, N-(3-fluoro-4-((6-methoxy-7-(3-morpholinopropoxy)quinazolin-4-yl)oxy)phenyl)-1,2-dim ethyl-4-oxo-6-(trifluoromethoxy)-1,4-dihydroquinoline-3-carboxamide]
2 |  |  | 1.2 | CCc1ccc2c(c1)c(=O)c(C(=O)Nc1ccc(Oc3ncnc4cc(OCCCN5CCOCC5)c(OC)cc34)c(F)c1)c(C)n2C [GDL5000123, 6-ethyl-N-(3-fluoro-4-((6-methoxy-7-(3-morpholinopropoxy)quinazolin-4-yl)oxy)phenyl)-1,2-dime thyl-4-oxo-1,4-dihydroquinoline-3-carboxamide, reference compound]
